Reference: ChEMBL document CHEMBL5036314, “Structure-Guided Design of the First Noncovalent Small-Molecule Inhibitor of CRM1” (J Med Chem, 2021)
Calls of active or inactive are those of the source. The rule behind the calls is not given here.

Key:
A2780 [1] = assay: Induction of apoptosis in human A2780 cells assessed as late apoptotic cells at 5 uM replaced with compound containing fresh culture medium every 12 hrs measured for 72 hrs by Annexin V FITC/propidium iodide staining based flow cytometric analysis (reference value: 1.35%); assay type: functional
HepG2 [2] = assay: Anti-cancer activity against human HepG2 cells assessed as inhibition of cell viability measured for 72 hrs replaced with compound containing fresh culture medium every 12 hrs by Sulforhodamine B assay; assay type: functional, cell-based
A2780 [3] = assay: Anti-cancer activity against human A2780 cells assessed as cell survival at 10 uM for 72 hrs replaced with compound containing fresh culture medium every 12 hrs by Sulforhodamine B assay; assay type: functional, cell-based
A2780 [4] = assay: Induction of apoptosis in human A2780 cells assessed as viable cells at 5 uM replaced with compound containing fresh culture medium every 12 hrs measured for 72 hrs by Annexin V FITC/propidium iodide staining based flow cytometric analysis (reference value: 93.97%); assay type: functional; details: read-out: Activity
HeLa [5] = assay: Inhibition of cellular nuclear export in human HeLa cells transfected with hCRM1-C528T/K568A dual mutant at 10 uM incubated for 72 hrs replaced with compound containing fresh culture medium every 12 hrs by Sulforhodamine B assay; assay type: functional, cell-based
MGC-803 = assay: Anti-cancer activity against human MGC-803 cells assessed as cell survival at 10 uM for 72 hrs replaced with compound containing fresh culture medium every 12 hrs by Sulforhodamine B assay; assay type: functional, cell-based
A549 [6] = assay: Anti-cancer activity against human A549 cells assessed as cell survival at 10 uM for 72 hrs replaced with compound containing fresh culture medium every 12 hrs by Sulforhodamine B assay; assay type: functional, cell-based
PANC-1 = assay: Anti-cancer activity against human PANC-1 cells assessed as cell survival at 10 uM for 72 hrs replaced with compound containing fresh culture medium every 12 hrs by Sulforhodamine B assay; assay type: functional, cell-based
HGC-27 = assay: Anti-cancer activity against human HGC-27 cells assessed as cell survival at 10 uM for 72 hrs replaced with compound containing fresh culture medium every 12 hrs by Sulforhodamine B assay; assay type: functional, cell-based
HeLa [7] = assay: Inhibition of cellular nuclear export in human HeLa cells transfected with hCRM1- C528T/F572Y dual mutant at 10 uM incubated for 72 hrs replaced with compound containing fresh culture medium every 12 hrs by Sulforhodamine B assay; assay type: functional, cell-based
HeLa [8] = assay: Anti-cancer activity against human HeLa cells assessed as inhibition of DNA synthesis at 1 to 10 uM incubated for 2 hrs by EdU incorporation based assay; assay type: functional, cell-based; details: dose 1-10 µM
HeLa [9] = assay: Binding affinity to human CRM1 C528S mutant transfected HeLa cells assessed as inhibition of nuclear export of cargoes at 10 uM incubated for 12 hrs by confocal microscope analysis; assay type: cell-based
Huh-7 = assay: Anti-cancer activity against human HuH-7 cells assessed as cell survival at 10 uM for 72 hrs replaced with compound containing fresh culture medium every 12 hrs by Sulforhodamine B assay; assay type: functional, cell-based
[10] = target: Exportin-1 (Saccharomyces cerevisiae) (UniProt P30822); assay: Inhibition of GST-NES MVM binding to yeast CRM1 at 20 uM by pull down assay
HeLa [11] = assay: Anti-cancer activity against human HeLa cells assessed as cell survival at 10 uM for 72 hrs replaced with compound containing fresh culture medium every 12 hrs by Sulforhodamine B assay; assay type: functional, cell-based
A2780 [12] = assay: Induction of apoptosis in human A2780 cells assessed as early apoptotic cells at 10 uM replaced with compound containing fresh culture medium every 12 hrs measured for 72 hrs by Annexin V FITC/propidium iodide staining based flow cytometric analysis (reference value: 3.67%); assay type: functional
HeLa [13] = assay: Anti-cancer activity against human HeLa cells assessed as cell viability at 20 uM incubated for 2 hrs by EdU incorporation based assay; assay type: functional
HepG2 [14] = assay: Anti-cancer activity against human HepG2 cells assessed as cell survival at 10 uM for 72 hrs replaced with compound containing fresh culture medium every 12 hrs by Sulforhodamine B assay; assay type: functional, cell-based
Exportin-1 [15] = target: T1, Exportin-1 (Homo sapiens, UniProt O14980); assay: Binding affinity to Cy3 dye-labelled human CRM1 assessed as dissociation constant in absence of RanGTP at 10 uM incubated for 1 hr by micro-scale thermophoresis analysis
T1 sequence (O14980 whole entry): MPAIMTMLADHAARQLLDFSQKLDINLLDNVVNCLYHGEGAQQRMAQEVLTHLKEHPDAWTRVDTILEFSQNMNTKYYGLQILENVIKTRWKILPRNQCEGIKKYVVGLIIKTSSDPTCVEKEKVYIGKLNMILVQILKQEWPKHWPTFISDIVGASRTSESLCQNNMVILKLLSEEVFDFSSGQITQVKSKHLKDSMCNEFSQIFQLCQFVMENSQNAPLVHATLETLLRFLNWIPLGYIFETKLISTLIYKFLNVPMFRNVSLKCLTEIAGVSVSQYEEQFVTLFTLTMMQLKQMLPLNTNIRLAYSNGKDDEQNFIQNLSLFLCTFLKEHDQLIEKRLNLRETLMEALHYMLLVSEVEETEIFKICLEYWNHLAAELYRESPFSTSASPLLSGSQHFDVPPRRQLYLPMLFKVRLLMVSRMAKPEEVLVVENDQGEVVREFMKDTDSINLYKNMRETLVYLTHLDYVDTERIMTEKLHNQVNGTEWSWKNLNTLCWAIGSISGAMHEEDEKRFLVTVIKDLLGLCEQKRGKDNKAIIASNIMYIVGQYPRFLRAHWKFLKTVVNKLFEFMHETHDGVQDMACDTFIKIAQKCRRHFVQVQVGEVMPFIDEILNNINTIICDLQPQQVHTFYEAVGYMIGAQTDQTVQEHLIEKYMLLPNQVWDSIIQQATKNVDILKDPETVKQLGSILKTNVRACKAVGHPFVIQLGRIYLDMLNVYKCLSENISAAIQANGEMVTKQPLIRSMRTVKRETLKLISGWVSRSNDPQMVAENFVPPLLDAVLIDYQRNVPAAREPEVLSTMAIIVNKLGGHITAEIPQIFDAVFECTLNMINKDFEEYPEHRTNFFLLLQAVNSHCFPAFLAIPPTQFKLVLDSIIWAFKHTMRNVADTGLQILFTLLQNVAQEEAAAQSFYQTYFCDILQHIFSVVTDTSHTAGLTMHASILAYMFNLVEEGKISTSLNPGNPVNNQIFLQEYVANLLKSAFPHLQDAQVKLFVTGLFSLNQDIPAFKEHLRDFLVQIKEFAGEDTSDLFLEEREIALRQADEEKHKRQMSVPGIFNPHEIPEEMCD

Exportin-1 [16] = target: T1, Exportin-1; assay: Inhibition of MBP-NES PKI binding to human CRM1 in presence RanGTP at 20 uM by pull down assay
A2780 [17] = assay: Anti-cancer activity against human A2780 cells assessed as fold reduction in DNA synthesis rate at 10 uM incubated for 2 hrs by EdU incorporation based assay; assay type: functional
HeLa [18] = assay: Anti-cancer activity against human HeLa cells transfected with hCRM1-C528T/F572Y dual mutant assessed as cell survival at 10 uM for 72 hrs replaced with compound containing fresh culture medium every 12 hrs by Sulforhodamine B assay; assay type: functional, cell-based
HeLa [19] = assay: Anti-cancer activity against human HeLa cells transfected with hCRM1-C528T/K568A dual mutant assessed as measuring cell survival at 10 uM for 72 hrs replaced with compound containing fresh culture medium every 12 hrs by Sulforhodamine B assay; assay type: functional, cell-based
A2780 [20] = assay: Induction of apoptosis in human A2780 cells assessed as early apoptotic cells at 1 uM replaced with compound containing fresh culture medium every 12 hrs measured for 72 hrs by Annexin V FITC/propidium iodide staining based flow cytometric analysis (reference value: 3.67%); assay type: functional
A2780 [21] = assay: Anti-cancer activity against human A2780 cells assessed as inhibition of cell viability measured for 72 hrs replaced with compound containing fresh culture medium every 12 hrs by Sulforhodamine B assay; assay type: functional, cell-based
HeLa [22] = assay: Inhibition of cellular nuclear export of endogenous cargo RanBP1 in human HeLa cells transfected with pmCherry-C1 plasmid at 1 to 10 uM incubated for 12 hrs by confocal microscope analysis; assay type: functional, cell-based; details: dose 1-10 µM
HeLa [23] = assay: Cytotoxicity against human HeLa cells transfected with hCRM1-C528S-mutant assessed as cell viability measured for 72 hrs replaced with compound containing fresh culture medium every 12 hrs by Sulforhodamine B assay; assay type: functional, cell-based
A2780 [24] = assay: Induction of apoptosis in human A2780 cells assessed as early apoptotic cells at 5 uM replaced with compound containing fresh culture medium every 12 hrs measured for 72 hrs by Annexin V FITC/propidium iodide staining based flow cytometric analysis (reference value: 3.67%); assay type: functional
HeLa [25] = assay: Induction of apoptosis in human HeLa cells assessed as cell death at 1 to 10 uM treated for 12 hrs by Annexin V FITC/propidium iodide staining based flow cytometric analysis; assay type: functional; details: dose 1-10 µM
HeLa [26] = assay: Anti-cancer activity against human HeLa cells assessed as inhibition of cell viability measured for 72 hrs replaced with compound containing fresh culture medium every 12 hrs by Sulforhodamine B assay; assay type: functional, cell-based
HeLa [27] = assay: Inhibition of cellular nuclear export of transfected cargo in human HeLa cells transfected with pmCherry-C1 plasmid at 1 to 10 uM incubated for 12 hrs by confocal microscope analysis; assay type: functional, cell-based; details: dose 1-10 µM
A549 [28] = assay: Anti-cancer activity against human A549 cells assessed as inhibition of DNA synthesis incubated for 2 hrs by EdU incorporation based assay; assay type: functional, cell-based; details: dose 1-10 µM
A549 [29] = assay: Induction of apoptosis in human A549 cells assessed as cell death at 1 to 10 uM treated for 12 hrs by Annexin V FITC/propidium iodide staining based flow cytometric analysis; assay type: functional; details: dose 1-10 µM
A2780 [30] = assay: Induction of apoptosis in human A2780 cells assessed as necrotic cells at 5 uM replaced with compound containing fresh culture medium every 12 hrs measured for 72 hrs by Annexin V FITC/propidium iodide staining based flow cytometric analysis (reference value: 1%); assay type: functional

`CC(C)CCNC/C=C/[S+]([O-])c1cc(C(F)(F)F)cc(C(F)(F)F)c1` (centres undefined) was tested, and the Activity (A2780 [1]) was 3.29%, the IC50 (HepG2 [2]) was 2900 nM and the Activity (A2780 [3]) was “Active”. The viability at 5 µM (A2780 [4]) was 79.2%, the inhibition (HeLa [5]) was “inactive” and the Activity (MGC-803) was “Active”. For the same compound, the Activity (A549 [6]) was “Active”, the Activity (PANC-1) was “Active” and the Activity (HGC-27) was “Active”. The inhibition (HeLa [7]) was “inactive”, the Activity (HeLa [8]) was “Dose-Dependent Effect” and the inhibition (HeLa [9]) was “Active”. The Activity (Huh-7) was “Active”, the inhibition [10] was “Active” and the Activity (HeLa [11]) was “Active”. The Activity (A2780 [12]) was 24.26%, the Activity (HeLa [13]) was “Active” and the Activity (HepG2 [14]) was “Active”. The Kd (Exportin-1 [15]) was 24 nM, the inhibition (Exportin-1 [16]) was “Active” and the “fold change (FC)” value (A2780 [17]) was 5. For the same compound, the IC50 (HeLa [18]) was 2600 nM, the IC50 (HeLa [19]) was 2000 nM and the Activity (A2780 [20]) was 4.71%. The IC50 (A2780 [21]) was 5000 nM, the inhibition (HeLa [22]) was “Active” and the IC50 (HeLa [23]) was 5900 nM. For the same compound, the Activity (A2780 [24]) was 15.55%, the Activity (HeLa [25]) was “Dose-Dependent Effect” and the IC50 (HeLa [26]) was 3800 nM. For the same compound, the inhibition (HeLa [27]) was “Active”, the Activity (A549 [28]) was “Dose-Dependent Effect” and the Activity (A549 [29]) was “Dose-Dependent Effect”. It also gave an Activity (A2780 [30]) of 1.88%.
